“Also recorded” adds a separate entry of the source. Where a name gives a salt, the structure may show the parent alone.
How the values were obtained:
C3H10T1/2 MSCs = assay: Flow-induced paracrine signaling: conditioned media of treated osteocytes on MSCs (OSX mRNA); type: cell-based; conditions: osteocytes treated with fenoldopam 10 μM 16 hours; MSCs cultured 48 hours in conditioned media
Protocol: Osteocytes were seeded at 2800 cells/cm2 for 72 hours before application of fluid flow. MC3T3 osteoblasts were cultured in MEMα supplemented with 10% FBS and 1% P/S. Osteoblasts were seeded at 2000 cells/cm2 72 hours before receiving conditioned media. C3H10T1/2 MSCs were cultured in DMEM low glucose (Life Technologies) supplemented with 10% FBS and 1% P/S, and seeded at 1100 cells/cm2 72 hours before culture with conditioned media 150. […] Osteocytes were cultured on rectangular flasks (8.2×9.2 cm; 12.5 ml of media) on a rocking platform which oscillated at a frequency of 0.33 Hz with an amplitude of 1.3 cm, supplying 0.08 Pa shear stress for 2, 6, 12, or 24 hours, FIG. 4.2. Shear stress generated by oscillatory fluid flow was calculated as previously performed 153. 12 hours of fluid flow was used in all experiments. Cells were also cultured in static conditions as a no flow control. Conditioned media was collected from osteocytes immediately upon completion of rocking, and used to culture osteoblasts or MSCs for 24 or 48 hours, respectively. […] Gene expression was analyzed by quantitative real-time PCR using primers and probes (Life Technologies) for analysis of osteopontin, OPN (Mm00436767_m1), osterix, OSX (Mm04209856_m1), and GAPDH (4351309). […]

MC3T3 osteoblasts = assay: Flow-induced paracrine signaling: conditioned media of treated osteocytes on osteoblasts (OPN mRNA); type: cell-based; conditions: osteocytes treated with fenoldopam 10 μM 16 hours; 12 hrs flow; osteoblasts cultured 24 hours
Adenylyl cyclase = Adenylyl cyclase activity: forskolin stimulated cAMP ELISA; type: cell-based
Protocol: Adenylyl cyclase activity was quantified by cAMP ELISA (Enzo). […] Cells were stimulated by 10 μM forskolin (Sigma) or DMSO vehicle control for 20 minutes prior to lysis with 0.1 M HCl. Cell lysate was analyzed according to manufacturer's protocol, and normalized to total protein quantified by BCA (Thermo Fisher). All samples and standards were run in duplicate.

MLO-Y4 osteocytes = assay: Oscillatory fluid flow-induced mRNA expression (COX-2, OPN, AC6), flow vs no flow; type: cell-based; conditions: for COX-2 mRNA response to flow (in words) / OPN mRNA response to flow (in words): fenoldopam 16 hours, flow 1 hour, relative to GAPDH
[1] = fenoldopam 100 mg/kg, rat model (Dalmas et al. 2008); cited from earlier work
C57Bl/6 mice = assay: Load-induced bone formation: compressive ulnar loading and dynamic histomorphometry; type: in vivo; conditions: ulnar load final 3 days
From the text: All data are shown in reference to the non-loaded contralateral limb as control. […] On day 4-6 the mice were subjected to daily axial compressive ulnar loading. Mice were placed under isoflurane anesthesia and forelimbs were placed between two loading cups controlled by an electromagnetic loading system with feedback control (Bose, ELF 3220). An initial 0.1 N preload was applied, followed by 3 N of cyclic compression applied with a 2 Hz sine wave for 120 cycles, generating a strain gage verified average peak deformation of 1895 μstrain. On day 8, mice were subcutaneously injected with calcein (10 mg/kg) and alizarin red (70 mg/kg) on day 12. Mice were euthanized on day 18 and prepared for dynamic histomorphometric analysis.
Compressive ulnar loading was applied on days 5-7 to mechanically stimulate bone (3N at 2 Hz for 120 cycles) [9].
On the final three days of drug or control injection, animals were also subjected to compressive ulnar load at a peak load of 3 N using a 2 Hz sine wave for 120 cycles, as previously described (Temiyasathit, S. et al. PLoS One 7, (2012); Lee, K. L. et al. FASEB J. 28, 1157-1165 (2014)). Contralateral limbs served as a non-loaded control. 2 days following load, mice were treated with 10 mg/kg calcein (Sigma), and 4 days later 70 mg/kg alizarin (Sigma), with mice being sacrificed 6 days later.
Dynamic histomorphometry was performed as previously described, measuring the amount and separation of calcein and alizarin labels to quantify mineralizing surface (rMS/BS), mineral apposition rate (rMAR), and bone formation rate (rBFR/BS) relative to non-loaded controls (Temiyasathit, S. et al. PLoS One 7, (2012); Lee, K. L. et al. FASEB J. 28, 1157-1165 (2014)). Left and right ulnae were dissected and preserved in ethanol. Samples were then infiltrated with methyl methacrylate, and embedded in methyl methacrylate and benzoyl peroxide. Transverse sections of the ulnar midshaft were imaged on a laser scanning confocal microscope (Olympus Fluoview FV1000). Measurements of outer bone perimeter (OP), single label perimeter (SL), double label perimeter (DL), and double label area (DA) were made in ImageJ. The mineralizing surface relative to outer bone surface (MS/BS), mineral apposition rate (MAR), and bone formation rate (BFS/BS) were calculated as:
Relative measurements—rMS/BS, rMAR, rBFR/BS—were determined by subtracting non-loaded from loaded ulnae to display differences due to mechanical load.

[2] = μCT analysis of non-loaded ulnae; type: in vivo, mice; conditions: for μCT: normal bone properties / microarchitecture (in words): 7 days, non-loaded ulnar midshaft
Protocol: Non-loaded ulnae were used for μCT analysis. Samples were imaged with a Scanco ViaCT 80 at 10.5 μm isotropic resolution. Images were processed using a Gaussian filter and global threshold to segment bone volumes. Ulnar midshafts were imaged and used to assess cortical bone, while the proximal epiphysis was used to examine ulnar trabecular bone. Cortical bone analysis was performed to determine total area, cortical area, marrow area, bone volume fraction (BV/TV), cortical thickness, moment of inertia (Imax and Imin), and bone mineral density (BMD). Trabecular analyses included BV/TV, connectivity density, trabecular number, trabecular thickness, trabecular spacing, and BMD.

[3] = 10 μM fenoldopam 16 h, flow 1 hr, fold change flow over no flow
[4] = fenoldopam on AC6 siRNA treated cells
[5] = fenoldopam 20 mg/kg s.c. 7 consecutive days, relative to non-loaded limb, vs vehicle
[6] = fenoldopam 20 mg/kg s.c. 7 consecutive days, relative to non-loaded limb, vs vehicle, listed as Fenoldopam
[7] = fenoldopam 50 mg/kg (Fen-High) s.c. 7 consecutive days
[8] = Table 1, ulnar midshaft, Female

## Oc1ccc(C2CNCCc3c2cc(O)c(O)c3Cl)cc1 (stereo not shown) [fenoldopam, Fenoldopam mesylate]
C3H10T1/2 MSCs
  MSC osteogenic differentiation, as measured by osterix (OSX) expression: significantly enhanced
MC3T3 osteoblasts
  osteoblast osteogenic gene (osteopontin, OPN) expression after conditioned media from flow-stimulated osteocytes: increased; also recorded: significantly enhanced
Adenylyl cyclase; 10 μM fenoldopam 16 hours, then 10 μM forskolin 20 minutes
  enhancement of forskolin stimulated cAMP response compared to vehicle control: 130%±25%
Adenylyl cyclase; fenoldopam 16 h, then forskolin 20 min
  cAMP response to forskolin stimulation (in words): significantly increases
MLO-Y4 osteocytes; [3]
  elevated flow-induced COX-2 mRNA expression compared to unlengthened controls: 124%±27%
  elevated flow-induced OPN mRNA expression compared to unlengthened controls: 48%±8%
MLO-Y4 osteocytes
  COX-2 mRNA response to flow (in words): significant increases
  OPN mRNA response to flow (in words): significant increases
MLO-Y4 osteocytes; listed as Fenoldopam
  COX-2 mRNA response to flow (in words): increased
  OPN mRNA response to flow (in words): increased
MLO-Y4 osteocytes; [4]
  AC6 mRNA expression in AC6 siRNA treated cells under flow: not recovered
  flow-induced OPN mRNA expression in AC6 siRNA treated cells: not recovered
MLO-Y4 osteocytes; fenoldopam on IFT88 siRNA treated cells
  flow stimulated OPN expression in IFT88 siRNA treated cells (in words): able to recover
MLO-Y4 osteocytes; fenoldopam on IFT88 siRNA treated cells, flow 1 h
  recovery of flow-induced OPN response compared to IFT88 siRNA and vehicle treated cells: 52%±1%
[1]
  vasotoxicity: vasotoxic
C57Bl/6 mice; [5]
  bone formation rate (rBFR/BS): significantly increased; also recorded: significant increases; also recorded: significantly enhanced
  mineral apposition rate (rMAR): significantly increased; also recorded: significant increases
  mineralizing surface (rMS/BS): remained unchanged; also recorded: neither fenoldopam concentration elicited a significant increase
C57Bl/6 mice; [6]
  bone formation rate (rBFR/BS): enhances
  mineralizing surface (rMS/BS): no effect
C57Bl/6 mice; [7]
  bone formation rate (rBFR/BS): no statistically significant difference; also recorded: no effect; also recorded: elicited no bone formation response
  mineral apposition rate (rMAR): no statistically significant difference; also recorded: no effect
  mineralizing surface (rMS/BS): no statistically significant difference; also recorded: no effect
[2]; [8]
  Cortical area: 0.310 ± 0.003 mm^2
  Cortical thickness: 0.173 ± 0.006 mm
  Imax: 0.029 ± 0.001 mm^4
  Imin: 0.005 ± 0.000 mm^4
  Porosity: 0.131 ± 0.006%
[2]; Table 1, ulnar midshaft, Female, fenoldopam 20 mg/kg 7 days
  Total area: 0.357 ± 0.005 mm^2
[2]; Table 1, ulnar midshaft, Male
  Cortical area: 0.320 ± 0.023 mm^2
  Cortical thickness: 0.169 ± 0.009 mm
  Imax: 0.033 ± 0.007 mm^4
  Imin: 0.004 ± 0.001 mm^4
  Porosity: 0.134 ± 0.003%
[2]; Table 1, ulnar midshaft, Male, fenoldopam 20 mg/kg 7 days
  Total area: 0.370 ± 0.027 mm^2
[2]; Table 5, cortical, Female
  Cortical area: 0.310 ± 0.003 mm^2
  Cortical thickness: 0.173 ± 0.006 mm
  Imax: 0.029 ± 0.001 mm^4
  Imin: 0.005 ± 0.000 mm^4
[2]; Table 5, cortical, Male
  Cortical area: 0.320 ± 0.009 mm^2
  Cortical thickness: 0.169 ± 0.004 mm
  Imax: 0.033 ± 0.003 mm^4
  Imin: 0.004 ± 0.001 mm^4
  Marrow area: 0.049 ± 0.001 mm^2
[2]; Table 5, ulnar midshaft - cortical, non-loaded, Female, 20 mg/kg fenoldopam
  Total area: 0.357 ± 0.005 mm^2
[2]; Table 5, ulnar midshaft - cortical, non-loaded, Male, 20 mg/kg fenoldopam
  Total area: 0.370 ± 0.010 mm^2
[2]; fenoldopam 20 mg/kg
  μCT: normal bone properties / microarchitecture (in words): no change; also recorded: no difference
[2]; fenoldopam 20 mg/kg, listed as Fenoldopam
  μCT: normal bone properties / microarchitecture (in words): did not result in any change
[2]; fenoldopam 20 mg/kg, preliminary study, data not shown
  μCT: normal cortical bone properties including thickness, area, and moment of inertia: no change

Reference: patent publication US20190015423A1, “REGULATION OF GENE EXPRESSION BY MODULATING PRIMARY CILIA LENGTH” (THE TRUSTEES OF COLUMBIA UNIVERSITY IN THE CITY OF NEW YORK, priority 2016, published 2019)
